Data published in US20240067693A1, “POLYPEPTIDES AND USES THEREOF” (MEDIMMUNE LIMITED, priority 2020, published 2024).
Numbered stars: 1 amine (or outer) side, 2 acyl side, 3 side chain; on linkers, the order of the positions; unused ones are H or OH. Bridge positions count the residues as written; N and C are the ends. Square brackets hold non-standard residues; d marks the D form. Side chains are listed from the residue outwards. Peptide text beside a SMILES is read from it. * marks the point of attachment. C18 diacid = O=C(O)CCCCCCCCCCCCCCCCC(=O)*; γGlu = O=C(O)[C@H](CCC(=O)[*:2])N[*:1]; αMeF = C[C@](N)(Cc1ccccc1)C(=O)O; Dab = NCC[C@H](N)C(=O)O; Aib = CC(C)(N)C(=O)O

Columns and labels:
[1] = molecular target: T1, human amylin receptor (calcitonin receptor co-expressed with receptor activity modifying protein, RAMP3) (hAMYR3) (Homo sapiens, UniProt O60896+P30988); test: cAMP production in 1321N1 cells with stable recombinant expression of human amylin receptor (hAMYR3); assay type: cell-based; settings: for Ratio (selectivity hAMYR vs hCTR, ratio of EC50 values at the two receptors): EC50 hCTR / EC50 hAMYR3; for EC50: cAMP, 1321N1 cells, assay buffer with 0.1% BSA, read-out: EC50 (pM) hAMYR3
T1 construct: expressed in transfected cells
T1 sequence (P30988 25-474): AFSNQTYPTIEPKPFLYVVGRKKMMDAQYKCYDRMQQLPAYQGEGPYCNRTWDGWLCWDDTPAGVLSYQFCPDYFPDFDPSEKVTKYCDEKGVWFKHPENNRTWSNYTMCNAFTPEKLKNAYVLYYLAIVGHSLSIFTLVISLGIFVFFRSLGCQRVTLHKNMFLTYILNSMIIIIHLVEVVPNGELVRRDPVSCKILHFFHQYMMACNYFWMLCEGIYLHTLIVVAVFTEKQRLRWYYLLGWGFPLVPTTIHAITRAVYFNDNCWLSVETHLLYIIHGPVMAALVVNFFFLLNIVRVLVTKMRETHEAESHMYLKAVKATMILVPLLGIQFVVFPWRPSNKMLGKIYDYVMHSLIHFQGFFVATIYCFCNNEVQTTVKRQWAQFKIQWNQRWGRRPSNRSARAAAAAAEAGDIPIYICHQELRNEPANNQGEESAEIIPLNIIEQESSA
T1 sequence (O60896 24-148 partner): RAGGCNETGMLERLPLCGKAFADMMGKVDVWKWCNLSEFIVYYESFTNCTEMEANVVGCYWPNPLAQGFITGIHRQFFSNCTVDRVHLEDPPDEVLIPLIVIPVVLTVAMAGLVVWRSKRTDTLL
Method in brief: (§1)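 Thawed cells in HBSS/0.1% BSA/25 mM HEPES pH 7.4 with 0.5 mM IBMX were incubated with peptides 30 min at room temperature; cAMP read by HTRF. EC50 from 4-parameter fit of % activation relative to maximal amylin or calcitonin effect.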

[2] = molecular target: T2, human calcitonin receptor (hCTR) (Homo sapiens, UniProt P30988); test: cAMP production in 1321N1 cells with stable recombinant expression of human calcitonin receptor (hCTR); assay type: cell-based; settings: cAMP, 1321N1 cells, assay buffer with 0.1% BSA; read-out: EC50 (pM) hCTR
T2 construct: expressed in transfected cells
T2 sequence (P30988 25-474): T1 sequence (P30988 25-474)
Method in brief: as §1

Compound | Ratio (selectivity hAMYR vs hCTR, ratio of EC50 values at the two receptors) [1] | EC50 [1] [pM] | EC50 [2] [pM]
CC[C@H](C)[C@H](NC(=O)[C@@H]1CCCN1C(=O)CNC(=O)[C@H](Cc1ccccc1)NC(=O)[C@H](CC(N)=O)NC(=O)C(C)(C)NC(=O)[C@H](CO)NC(=O)[C@H](CO)NC(=O)[C@H](Cc1c[nH]cn1)NC(=O)[C@@H](NC(=O)[C@H](CC(C)C)NC(=O)[C@H](Cc1ccccc1)NC(=O)[C@H](CC(N)=O)NC(=O)[C@H](C)NC(=O)[C@H](CC(C)C)NC(=O)[C@H](CCCNC(=N)N)NC(=O)[C@H](CCC(N)=O)NC(=O)[C@@H](NC(=O)[C@H](C)NC(=O)[C@@H]1CSSC[C@H](NC(=O)[C@H](CCCCN)NC(=O)[C@@H](N)CCCCNC(=O)CC[C@H](NC(=O)CCCCCCCCCCCCCCCCC(=O)O)C(=O)O)C(=O)N[C@@H](CC(N)=O)C(=O)N[C@@H]([C@@H](C)O)C(=O)N[C@@H](C)C(=O)N[C@@H]([C@@H](C)O)C(=O)N1)[C@@H](C)O)C(C)C)C(=O)N[C@@H](CC(C)C)C(=O)NC(C)(C)C(=O)N1CCC[C@H]1C(=O)N[C@H](C(=O)N[C@@H](CC(N)=O)C(=O)N[C@H](C(=O)NCC(=O)N[C@@H](CO)C(=O)N[C@@H](CC(N)=O)C(=O)N[C@H](C(=O)N[C@@H](Cc1ccc(O)cc1)C(N)=O)[C@@H](C)O)C(C)C)[C@@H](C)O [Peptide 88, K(γE-C18diacid)K[CNTATC]ATQRLANFLVHSS(Aib)NFGPIL(Aib)PTNVGSNTY-amide] (H-K([γGlu-C18 diacid])KCNTATCATQRLANFLVHSS[Aib]NFGPIL[Aib]PTNVGSNTY-NH2; disulfide 3-8; N-terminus assumed) | 4 | 281 | 1170
CC[C@H](C)[C@H](NC(=O)[C@@H]1CCCN1C(=O)CNC(=O)[C@H](Cc1ccccc1)NC(=O)[C@H](CC(N)=O)NC(=O)C(C)(C)NC(=O)[C@H](CO)NC(=O)[C@H](CO)NC(=O)[C@H](Cc1c[nH]cn1)NC(=O)[C@@H](NC(=O)[C@H](CC(C)C)NC(=O)[C@H](Cc1ccccc1)NC(=O)[C@H](CC(N)=O)NC(=O)[C@H](C)NC(=O)[C@H](CC(C)C)NC(=O)[C@H](CCCNC(=N)N)NC(=O)[C@H](CCC(N)=O)NC(=O)[C@@H](NC(=O)[C@H](C)NC(=O)[C@@H]1CSSC[C@H](NC(=O)[C@@H](N)CCCCNC(=O)CC[C@H](NC(=O)CCCCCCCCCCCCCCCCC(=O)O)C(=O)O)C(=O)N[C@@H](CC(N)=O)C(=O)N[C@@H]([C@@H](C)O)C(=O)N[C@@H](C)C(=O)N[C@@H]([C@@H](C)O)C(=O)N1)[C@@H](C)O)C(C)C)C(=O)N[C@H](CC(C)C)C(=O)N1CCC[C@H]1C(=O)N1CCC[C@H]1C(=O)N[C@H](C(=O)N[C@@H](CC(N)=O)C(=O)N[C@H](C(=O)NCC(=O)N[C@@H](CO)C(=O)N[C@@H](CC(N)=O)C(=O)N[C@H](C(=O)N[C@@H](Cc1ccc(O)cc1)C(N)=O)[C@@H](C)O)C(C)C)[C@@H](C)O [Peptide 59, K(γE-C18diacid)[CNTATC]ATQRLANFLVHSS(Aib)NFGPI(dL)PPTNVGSNTY-amide] (H-K([γGlu-C18 diacid])CNTATCATQRLANFLVHSS[Aib]NFGPI[dL]PPTNVGSNTY-NH2; disulfide 2-7; N-terminus assumed) | 5 | 157 | 809
CC[C@H](C)[C@H](NC(=O)[C@@H]1CCCN1C(=O)CNC(=O)[C@H](Cc1ccccc1)NC(=O)[C@H](CC(N)=O)NC(=O)[C@H](CCN)NC(=O)[C@H](CO)NC(=O)[C@H](CO)NC(=O)[C@H](Cc1c[nH]cn1)NC(=O)C(C)(C)NC(=O)[C@H](CC(C)C)NC(=O)[C@H](Cc1ccccc1)NC(=O)[C@H](CC(N)=O)NC(=O)[C@H](C)NC(=O)[C@H](CC(C)C)NC(=O)[C@H](CCCNC(=N)N)NC(=O)[C@H](CCC(N)=O)NC(=O)[C@@H](NC(=O)[C@H](C)NC(=O)[C@@H]1CSSC[C@H](NC(=O)[C@H](CCCCN)NC(=O)[C@@H](N)CCCCNC(=O)CC[C@H](NC(=O)CCCCCCCCCCCCCCCCC(=O)O)C(=O)O)C(=O)N[C@@H](CC(N)=O)C(=O)N[C@@H]([C@@H](C)O)C(=O)N[C@@H](C)C(=O)N[C@@H]([C@@H](C)O)C(=O)N1)[C@@H](C)O)C(=O)N[C@@H](CC(C)C)C(=O)N1CCC[C@H]1C(=O)N1CCC[C@H]1C(=O)N[C@H](C(=O)N[C@@H](CCC(=O)O)C(=O)N[C@H](C(=O)NCC(=O)N[C@@H](CO)C(=O)N[C@@H](CC(N)=O)C(=O)N[C@H](C(=O)N[C@@H](Cc1ccc(O)cc1)C(N)=O)[C@@H](C)O)C(C)C)[C@@H](C)O [Peptide 30, K(γE-C18diacid)K[CNTATC]ATQRLANFL(Aib)HSS(Dab)NFGPILPPTEVGSNTY-amide] (H-K([γGlu-C18 diacid])KCNTATCATQRLANFL[Aib]HSS[Dab]NFGPILPPTEVGSNTY-NH2; disulfide 3-8; N-terminus assumed) | 12 | 873 | 10500
CC[C@H](C)[C@H](NC(=O)[C@@H]1CCCN1C(=O)CNC(=O)[C@](C)(Cc1ccccc1)NC(=O)[C@H](CC(N)=O)NC(=O)[C@H](CC(N)=O)NC(=O)[C@H](CO)NC(=O)[C@H](CO)NC(=O)[C@H](Cc1c[nH]cn1)NC(=O)[C@@H](NC(=O)[C@H](CC(C)C)NC(=O)[C@H](Cc1ccccc1)NC(=O)[C@H](CC(N)=O)NC(=O)[C@H](C)NC(=O)[C@H](CC(C)C)NC(=O)[C@H](CCCNC(=N)N)NC(=O)[C@H](CCC(N)=O)NC(=O)[C@@H](NC(=O)[C@H](C)NC(=O)[C@@H]1CSSC[C@H](NC(=O)[C@H](CCCCN)NC(=O)[C@@H](N)CCCCNC(=O)CC[C@H](NC(=O)CCCCCCCCCCCCCCCCC(=O)O)C(=O)O)C(=O)N[C@@H](CC(N)=O)C(=O)N[C@@H]([C@@H](C)O)C(=O)N[C@@H](C)C(=O)N[C@@H]([C@@H](C)O)C(=O)N1)[C@@H](C)O)C(C)C)C(=O)N[C@@H](CC(C)C)C(=O)N1CCC[C@H]1C(=O)N1CCC[C@H]1C(=O)N[C@H](C(=O)N[C@@H](CC(N)=O)C(=O)N[C@H](C(=O)NCC(=O)N[C@@H](CO)C(=O)N[C@@H](CC(N)=O)C(=O)N[C@H](C(=O)N[C@@H](Cc1ccc(O)cc1)C(N)=O)[C@@H](C)O)C(C)C)[C@@H](C)O [Peptide 14, K(γE-C18diacid)K[CNTATC]ATQRLANFLVHSSNN(αMePhe)GPILPPTNVGSNTY-amide] (H-K([γGlu-C18 diacid])KCNTATCATQRLANFLVHSSNN[αMeF]GPILPPTNVGSNTY-NH2; disulfide 3-8; N-terminus assumed) | 6 | 220 | 1350
CC[C@H](C)[C@H](NC(=O)[C@@H]1CCCN1C(=O)CNC(=O)[C@H](Cc1ccccc1)NC(=O)[C@H](CC(N)=O)NC(=O)[C@@H]1CCCN1C(=O)[C@H](CO)NC(=O)[C@H](CO)NC(=O)[C@H](Cc1c[nH]cn1)NC(=O)C(C)(C)NC(=O)[C@H](CC(C)C)NC(=O)[C@H](Cc1ccccc1)NC(=O)[C@H](CC(N)=O)NC(=O)[C@H](C)NC(=O)[C@H](CC(C)C)NC(=O)[C@H](CCCNC(=N)N)NC(=O)[C@H](CCC(N)=O)NC(=O)[C@@H](NC(=O)[C@H](C)NC(=O)[C@@H]1CSSC[C@H](NC(=O)[C@H](CCCCN)NC(=O)[C@@H](N)CCCCNC(=O)CC[C@H](NC(=O)CCCCCCCCCCCCCCCCC(=O)O)C(=O)O)C(=O)N[C@@H](CC(N)=O)C(=O)N[C@@H]([C@@H](C)O)C(=O)N[C@@H](C)C(=O)N[C@@H]([C@@H](C)O)C(=O)N1)[C@@H](C)O)C(=O)N[C@@H](CC(C)C)C(=O)N1CCC[C@H]1C(=O)N1CCC[C@H]1C(=O)N[C@H](C(=O)N[C@@H](CC(N)=O)C(=O)N[C@H](C(=O)NCC(=O)N[C@@H](CO)C(=O)N[C@@H](CC(N)=O)C(=O)N[C@H](C(=O)N[C@@H](Cc1ccc(O)cc1)C(N)=O)[C@@H](C)O)C(C)C)[C@@H](C)O [Peptide 132] (H-K([γGlu-C18 diacid])KCNTATCATQRLANFL[Aib]HSSPNFGPILPPTNVGSNTY-NH2; disulfide 3-8) | 9.3 | 416 | 3850
